Among the test systems are SK-MEL-28 melanoma; M14 melanoma; A549 NSCLC; IGROV1 ovarian; OVCAR-4 ovarian; MDA-N; K-562 leukemia; RPMI-8226 leukemia; OVCAR-8 ovarian; SN12C renal; RXF 393 renal.
Common to all, as to assay: inhibition of tumour cell growth, NCI panel, 48 h

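Protocol summary: plate cells (96-well), add compound at 5 concentrations, incubate 48 h, interpolate endpoints linearly. At the GI50, growth is halved. The concentration for full growth arrest is given as TGI.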

`Cc1cn(C(CO)OC(CO)CN(O)C2C3CC4CC(C3)CC2C4)c(=O)[nH]c1=O` (configuration not stated): the TGI in the test on SK-MEL-28 melanoma, with M14 melanoma, in the test with A549 NSCLC, in the test with IGROV1 ovarian, in the test with OVCAR-4 ovarian and in the test with MDA-N was more than 100 µM throughout. The TGI in the test on K-562 leukemia, in the test with RPMI-8226 leukemia, with OVCAR-8 ovarian and in the test with SN12C renal was more than 100 µM in each case.
On to `N=C1c2ccccc2C(=O)c2c(NCCNCCO)ccc(O)c21`, for which the TGI is 23.2 µM in the test on SK-MEL-28 melanoma; 24.8 µM with M14 melanoma; 18 µM in the test with RXF 393 renal; 22.6 µM in the test with A549 NSCLC; 46.8 µM with IGROV1 ovarian; 83.3 µM in the test with OVCAR-4 ovarian. Further, the TGI was more than 28.8 µM with K-562 leukemia, 24.6 µM in the test with RPMI-8226 leukemia, more than 76.2 µM in the test on OVCAR-8 ovarian and 31.7 µM with SN12C renal.
On to `COc1ccc2[nH]c3c(c2c1)CCc1c(OC)cccc1-3`, for which the TGI with SK-MEL-28 melanoma, in the test on M14 melanoma, with A549 NSCLC, with IGROV1 ovarian, in the test with OVCAR-4 ovarian and in the test with MDA-N was more than 100 µM each time. In addition, the TGI in the test with K-562 leukemia, with RPMI-8226 leukemia, in the test on OVCAR-8 ovarian and in the test with SN12C renal was more than 100 µM in each case.
`O=C1C=CC(=O)c2c(O)c(NCCN3CCOCC3)c(Cl)c(O)c21`: the TGI with SK-MEL-28 melanoma was 2.98 µM; with M14 melanoma it was 3.64 µM; in the test on A549 NSCLC, 4.96 µM; in the test with IGROV1 ovarian, 3.72 µM; in the test on OVCAR-4 ovarian it was 3.22 µM; in the test on MDA-N, 5.33 µM. For the same compound, the values for the TGI in the test with K-562 leukemia, in the test with OVCAR-8 ovarian and in the test with SN12C renal were 7.59 µM, more than 10 µM and 3.23 µM, respectively.
For the compound `COC(=O)CC(C(C(=O)OCc1ccccc1)C(C)O)N1C(=O)OCC1c1ccccc1` (configuration not stated), the TGI in the test with SK-MEL-28 melanoma, with M14 melanoma, in the test with RXF 393 renal, in the test on A549 NSCLC, in the test with IGROV1 ovarian and with OVCAR-4 ovarian was more than 100 µM in each case. Also, the TGI with K-562 leukemia, in the test with RPMI-8226 leukemia, in the test on OVCAR-8 ovarian and in the test on SN12C renal was more than 100 µM throughout.
Consider `COC(=O)Cc1cccc2c(=O)c(S(=O)(=O)NC(=O)Nc3ccc(Cl)cc3)c(-c3ccccc3)oc12`, for which the TGI in the test with SK-MEL-28 melanoma, in the test on M14 melanoma, in the test on A549 NSCLC, in the test on IGROV1 ovarian, in the test on OVCAR-4 ovarian and with MDA-N was more than 100 µM each time. Further, the TGI in the test with K-562 leukemia, in the test with OVCAR-8 ovarian and in the test with SN12C renal was more than 100 µM in each case.
As to `COc1ccc(CC2Cc3ccccc3CC(=O)N2)cc1OC` (configuration not stated), the TGI in the test on SK-MEL-28 melanoma, in the test with M14 melanoma, in the test with A549 NSCLC, with IGROV1 ovarian, with OVCAR-4 ovarian and in the test with MDA-N was more than 100 µM throughout. Besides, the TGI in the test with K-562 leukemia, in the test with OVCAR-8 ovarian and with SN12C renal was more than 100 µM each time.
`CC12CP(=O)(O)CC1C2(Cl)Cl` (configuration not stated): the TGI in the test with SK-MEL-28 melanoma, with M14 melanoma, in the test with RXF 393 renal, in the test with A549 NSCLC, in the test on IGROV1 ovarian and in the test on OVCAR-4 ovarian was more than 100 µM in each case. In addition, the TGI in the test on K-562 leukemia, in the test on RPMI-8226 leukemia, with OVCAR-8 ovarian and in the test on SN12C renal was more than 100 µM each time.
For `CSc1c(C(N)=S)c(N)nn1-c1ccccc1`, the TGI in the test on SK-MEL-28 melanoma, in the test with M14 melanoma, in the test on RXF 393 renal, in the test with A549 NSCLC, in the test on IGROV1 ovarian and with OVCAR-4 ovarian was more than 100 µM throughout. In addition, the TGI in the test on K-562 leukemia, in the test on RPMI-8226 leukemia, in the test with OVCAR-8 ovarian and with SN12C renal was more than 100 µM throughout.
`O=C(N/N=C\c1ccc(N(CCCl)CCCl)cc1)c1cccnc1`: the GI50 is more than 100 µM in the test with SK-MEL-28 melanoma; 60.2 µM in the test on M14 melanoma; 19.7 µM with RXF 393 renal; 37.5 µM in the test on A549 NSCLC; more than 100 µM in the test with IGROV1 ovarian; 32.2 µM with K-562 leukemia. For the same compound, the GI50 in the test on RPMI-8226 leukemia is 44.8 µM; in the test with OVCAR-8 ovarian it was 39.8 µM; with SN12C renal, 20.6 µM. Further, the TGI in the test on SK-MEL-28 melanoma was more than 100 µM; with M14 melanoma, more than 100 µM; in the test with RXF 393 renal it was 85.7 µM; in the test with A549 NSCLC, more than 100 µM; in the test on IGROV1 ovarian, more than 100 µM; in the test with K-562 leukemia it was more than 100 µM. Also, the TGI in the test on RPMI-8226 leukemia, in the test on OVCAR-8 ovarian and with SN12C renal was more than 100 µM throughout.
`CCOC(=O)c1ccc(NCc2ccc3nc(OC)c(OC)nc3c2)cc1`: the TGI with SK-MEL-28 melanoma, in the test on M14 melanoma, with A549 NSCLC, in the test with IGROV1 ovarian, in the test on OVCAR-4 ovarian and in the test on MDA-N was more than 100 µM in each case. Moreover, the TGI with K-562 leukemia, in the test on OVCAR-8 ovarian and in the test with SN12C renal was more than 100 µM in each case.
On to `CS(=O)(=O)c1ccc(C(=O)O[C@@H]2C(=O)N3CC[C@H]4OC(O)[C@@H]2[C@H]43)cc1` (some centres not stated), for which the TGI with SK-MEL-28 melanoma, in the test on M14 melanoma, in the test with RXF 393 renal, with A549 NSCLC, with OVCAR-4 ovarian and with K-562 leukemia was more than 100 µM in each case. Besides, the TGI in the test on RPMI-8226 leukemia and in the test with OVCAR-8 ovarian was more than 100 µM in each case.
As for `CN1/C(=C\N=O)C(C)(C)N(O)C1(C)C`, the TGI in the test on SK-MEL-28 melanoma, in the test with M14 melanoma, with A549 NSCLC, with IGROV1 ovarian, with OVCAR-4 ovarian and in the test on MDA-N was more than 100 µM each time. The TGI with K-562 leukemia, in the test on RPMI-8226 leukemia, in the test on OVCAR-8 ovarian and in the test with SN12C renal was more than 100 µM each time.

(Values after PubChem BioAssay (NCI).)
